Laboratory results reported in paper PMC6553790 (PLoS Pathogens, 2019).

Tests used:
[1] = test system: P. falciparum Cam3.II lines; test: Isobologram analyses (fixed-ratio drug combinations); format: cell-based, Plasmodium falciparum
Protocol: Assays were performed with fixed ratios of drug combinations (1:0, 4:1, 2:1, 1:1, 1:2, 1:4, and 0:1), tested in duplicate. Combinations were prepared from 16×IC50 drug stocks and tested across a range of two-fold dilutions. Assays were conducted with asynchronous cultures exposed for 72 hr or with tightly synchronized rings or trophozoites (tested at 0–3 hr or 24–27 hr post-invasion, respectively) exposed for 3 hr. Post-pulse drug washouts were conducted as described above for in vitro determination of IC50 levels. IC50 values were derived for each compound tested alone, and fractional IC50 (FIC50) values were determined for each compound tested in combination (FIC50 = […]) and plotted for each drug combination. For each combination, the mean of the sums of FIC50 values at each combination (mean ΣFIC50) was also calculated and the results illustrated using heat maps.

[2] = test system: P. falciparum Cam3.II lines; test: Stage-specificity 1 hr pulse survival assay; format: cell-based, Plasmodium falciparum; conditions: 150 nM
Protocol: All stage-specificity tests were concluded 72 hr from the start of the experiment. Assays were performed in duplicate. Parasites were prepared by synchronizing ring stages with 5% D-Sorbitol and later isolating the schizonts over a 75% Percoll gradient. These schizonts were allowed to reinvade fresh RBCs at 2% hematocrit. Parasites were tested as purified schizonts, early rings, mid rings, late rings or trophozoites (~45–47, 0–3, 10–13, 18–21 and 24–27 hr post-invasion, respectively), and exposed to drug or DMSO vehicle control in 1 mL volumes. Parasites were seeded at 0.5% parasitemia and 1% hematocrit in a 48-well plate.
Drug-treated parasites were washed as previously described for the RSA0-3h. Briefly, 1 mL cultures were transferred to 15 mL conical tubes, centrifuged at 800×g for 5 minutes to pellet cells, and the culture medium containing drug was carefully removed. Cells were subsequently resuspended in 10 mL drug-free medium, centrifuged, and the wash medium removed. Finally, cells were resuspended in 1 mL of fresh drug-free medium, transferred to a new well, and returned to standard culture conditions for the duration of the assay. Parasitemias were measured by flow cytometry and the survival of drug-treated parasites was calculated as a percent of DMSO-treated control cultures.

Plasmodium parasites = conditions: cited from earlier work

Compound: C[C@H]1[C@@H](O)O[C@@H]2O[C@@]3(C)CC[C@H]4[C@H](C)CC[C@@H]1[C@@]24OO3 [DHA, dihydroartemisinin]
- Interaction with WLW (isobologram) ([1]; asynchronous parasites, early rings and trophozoites, Cam3.II K13WT and K13C580Y): synergy
- Mean of the sums of FIC50 (mean ΣFIC50) ([1]; combined with WLL, Asynchronous, 72 hr, Cam3.II K13WT): 0.89
- Mean of the sums of FIC50 (mean ΣFIC50) ([1]; combined with WLL, Rings, 3 hr exposure, Cam3.II K13C580Y): 0.77
- Mean of the sums of FIC50 (mean ΣFIC50) ([1]; combined with WLL, Rings, 3 hr exposure, Cam3.II K13WT): 0.69
- Mean of the sums of FIC50 (mean ΣFIC50) ([1]; combined with WLL, Trophozoites, 3 hr exposure, Cam3.II K13C580Y): 0.68
- Mean of the sums of FIC50 (mean ΣFIC50) ([1]; combined with WLL, Trophozoites, 3 hr exposure, Cam3.II K13WT): 0.70
- Mean of the sums of FIC50 (mean ΣFIC50) ([1]; combined with WLW, Asynchronous, 72 hr, Cam3.II K13C580Y): 0.71
- Mean of the sums of FIC50 (mean ΣFIC50) ([1]; combined with WLW, Asynchronous, 72 hr, Cam3.II K13WT): 0.66
- Mean of the sums of FIC50 (mean ΣFIC50) ([1]; combined with WLW, Rings, 3 hr exposure, Cam3.II K13C580Y): 0.44
- Mean of the sums of FIC50 (mean ΣFIC50) ([1]; combined with WLW, Rings, 3 hr exposure, Cam3.II K13WT): 0.43
- Mean of the sums of FIC50 (mean ΣFIC50) ([1]; combined with WLW, Trophozoites, 3 hr exposure, Cam3.II K13C580Y): 0.73
- Mean of the sums of FIC50 (mean ΣFIC50) ([1]; combined with WLW, Trophozoites, 3 hr exposure, Cam3.II K13WT): 0.69
- Interaction with WLL (isobologram) ([1]; early rings and trophozoites): Synergy
- Mean percent survival ([2]; Early rings (0–3 hpi), Cam3.II K13C580Y): 57.9 ± 5.6%
- Mean percent survival ([2]; Early rings (0–3 hpi), Cam3.II K13WT): 46.8 ± 10.6%
- Mean percent survival ([2]; Late rings (18–21 hpi), Cam3.II K13C580Y): 13.5 ± 3.1%
- Mean percent survival ([2]; Late rings (18–21 hpi), Cam3.II K13WT): 18.9 ± 5.6%
- Mean percent survival ([2]; Mid rings (10–13 hpi), Cam3.II K13C580Y): 29.1 ± 3.4%
- Mean percent survival ([2]; Mid rings (10–13 hpi), Cam3.II K13WT): 35.4 ± 2.7%
- Mean percent survival ([2]; Schizonts (45–48 hpi), Cam3.II K13C580Y): 71.9 ± 13.6%
- Mean percent survival ([2]; Schizonts (45–48 hpi), Cam3.II K13WT): 59.0 ± 5.3%
- Mean percent survival ([2]; Trophs (24–27 hpi), Cam3.II K13C580Y): 4.1 ± 0.6%
- Mean percent survival ([2]; Trophs (24–27 hpi), Cam3.II K13WT): 2.3 ± 0.1%

Compound: CC(C)(C)NC(=O)C[C@H](NC(=O)CCc1ccccc1)C(=O)NCCNC(=O)c1cccc(-c2ccccc2)c1 [PKS21004]
- Resistance of selected parasites, fold increase over the sensitive parent (Plasmodium parasites): > 130 fold
